Patent US20230090337A1, “PHARMACEUTICAL FORMULATIONS COMPRISING 6-CHLORO-7-(4-(4-CHLOROBENZYL)PIPERAZIN-1 -YL)-2-(1,3-DIMETHYL-1 HPYRAZOL-4-YL)-3H- IMIDAZO[4,5-B]PYRIDINE” (ELLIPSES PHARMA LTD, priority 2020, published 2023)
Where two headings read alike, the source gives them in different places.

Legend:
[1] = Stability / hygroscopicity of salts; assay type: physicochemical; details: e.g. due to lower hygroscopicity
[2] = Solubility of the compound of Formula (1) in non-ionic surfactants; assay type: physicochemical; details: thermodynamic from solid
Experimental: Approximately 3 mg of the compound of Formula (1) (monofumarate) was weighed out into clean HLPC vials. Various non-ionic surfactants were added in 200 or 300 μL portions up to 1 ml in total. After each addition, the sample was with vortexed (2×30 seconds) sonicated for 6 minutes, and once 1 ml total had been added the sample was kept in an oven at 45° C. for 40 minutes before being cooled to RT to aid dissolution. Observations are provided below:
Those excipients that have a melting point above ambient temperature were heated to above their melting point (e.g. 50° C.-70° C.) and observations were made in the liquid phase.

[3] = Aqueous solubility of salt versus free base; assay type: physicochemical
cytochrome P450 = details: cited from earlier work
hERG = hERG (Homo sapiens, UniProt Q12809); details: cited from earlier work
hERG, sequence (Q12809 whole entry): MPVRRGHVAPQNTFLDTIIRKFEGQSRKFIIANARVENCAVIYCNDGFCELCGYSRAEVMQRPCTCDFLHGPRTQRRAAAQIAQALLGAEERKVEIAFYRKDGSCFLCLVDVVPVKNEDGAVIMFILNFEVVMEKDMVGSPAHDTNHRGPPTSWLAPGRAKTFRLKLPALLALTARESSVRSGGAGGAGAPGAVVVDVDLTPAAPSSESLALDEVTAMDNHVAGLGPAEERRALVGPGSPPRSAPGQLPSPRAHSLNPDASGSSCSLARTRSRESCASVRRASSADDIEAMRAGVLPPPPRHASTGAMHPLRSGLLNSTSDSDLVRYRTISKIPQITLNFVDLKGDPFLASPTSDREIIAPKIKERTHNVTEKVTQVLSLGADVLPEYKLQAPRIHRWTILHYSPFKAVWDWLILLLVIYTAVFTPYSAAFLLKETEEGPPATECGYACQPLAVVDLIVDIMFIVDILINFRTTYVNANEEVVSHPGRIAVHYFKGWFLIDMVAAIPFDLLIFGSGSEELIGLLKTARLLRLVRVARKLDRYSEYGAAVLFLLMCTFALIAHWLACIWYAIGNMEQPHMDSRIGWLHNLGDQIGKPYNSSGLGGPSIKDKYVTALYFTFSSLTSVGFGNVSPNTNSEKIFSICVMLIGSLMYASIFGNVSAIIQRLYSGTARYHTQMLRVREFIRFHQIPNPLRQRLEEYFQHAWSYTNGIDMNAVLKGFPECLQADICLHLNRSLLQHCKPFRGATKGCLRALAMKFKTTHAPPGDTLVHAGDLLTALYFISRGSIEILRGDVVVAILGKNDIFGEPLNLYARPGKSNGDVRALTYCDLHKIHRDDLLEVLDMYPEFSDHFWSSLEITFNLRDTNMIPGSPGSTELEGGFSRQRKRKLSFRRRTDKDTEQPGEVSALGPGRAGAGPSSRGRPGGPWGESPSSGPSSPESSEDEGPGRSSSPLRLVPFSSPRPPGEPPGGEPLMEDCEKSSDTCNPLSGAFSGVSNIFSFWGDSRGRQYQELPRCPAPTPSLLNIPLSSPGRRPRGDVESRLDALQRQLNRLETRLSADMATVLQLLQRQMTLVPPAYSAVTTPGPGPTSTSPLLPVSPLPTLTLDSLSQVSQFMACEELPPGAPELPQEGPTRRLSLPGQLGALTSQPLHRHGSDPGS

Aurora A = target: T1, Aurora A (Homo sapiens, UniProt O14965); details: cited from earlier work
T1 sequence (O14965 1-403): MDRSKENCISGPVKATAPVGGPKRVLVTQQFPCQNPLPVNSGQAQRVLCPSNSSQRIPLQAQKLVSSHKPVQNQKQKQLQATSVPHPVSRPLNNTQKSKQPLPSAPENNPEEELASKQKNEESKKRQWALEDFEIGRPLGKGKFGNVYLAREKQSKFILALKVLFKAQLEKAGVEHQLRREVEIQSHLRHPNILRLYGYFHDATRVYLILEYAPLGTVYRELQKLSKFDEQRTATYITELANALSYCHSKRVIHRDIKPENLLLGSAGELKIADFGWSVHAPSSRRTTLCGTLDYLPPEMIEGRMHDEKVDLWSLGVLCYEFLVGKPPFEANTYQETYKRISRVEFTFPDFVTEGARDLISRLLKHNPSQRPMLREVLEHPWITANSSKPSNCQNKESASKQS

Aurora B = Aurora B (Homo sapiens, UniProt Q96GD4); details: cited from earlier work
Aurora B, sequence (Q96GD4 whole entry): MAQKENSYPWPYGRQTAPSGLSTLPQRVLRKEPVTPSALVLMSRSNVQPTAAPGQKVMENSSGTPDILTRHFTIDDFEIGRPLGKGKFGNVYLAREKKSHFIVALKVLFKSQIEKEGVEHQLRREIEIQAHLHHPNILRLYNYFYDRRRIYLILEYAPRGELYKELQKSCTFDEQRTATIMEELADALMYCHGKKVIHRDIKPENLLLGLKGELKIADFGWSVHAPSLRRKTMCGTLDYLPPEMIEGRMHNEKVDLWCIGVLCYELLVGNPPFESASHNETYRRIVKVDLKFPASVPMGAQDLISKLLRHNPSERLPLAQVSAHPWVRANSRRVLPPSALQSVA

[4] = Excipient solubilising ability (20% w/v aqueous excipient solutions, DMSO spike, observed for precipitation); assay type: physicochemical; details: for solubility: aqueous with cosolvent or surfactant or cyclodextrin, kinetic from dmso stock
Experimental: Promising non-ionic surfactants were further tested. Each was prepared as a 20% w/v aqueous solution.
The excipients tested were (HLB): Cremophor EL (12-14); Cremophor RH 40 (14-16); Labrasol ALF; Solutol HS15 (˜16); Poloxamer P124 (12-18); TPGS (˜13); and Gelucire 44/14 (˜11).
Initially, the concentrated DMSO solution was prepared at 30 mg/mL to give a starting concentration of 3 mg/mL of the compound of Formula (1) in the aqueous vehicle, and the concentration was reduced until a semi-solid excipient was identified which maintained a clear solution of the compound. No excipients solubilised the compound at concentrations >1.5 mg/mL in this experiment, but TPGS unexpectedly performed best—solubilising the compound at a concentration of 1.5 mg/mL in the aqueous vehicle (e.g. 100 μL portion of a 15 mg/mL solution of the compound in DMSO was added to each excipient solution to achieve the final concentration of 1.5 mg/mL). In TPGS the solution remained clear for up to 5 hours.

Aurora C = target: T2, Aurora C (Homo sapiens, UniProt Q9UQB9); details: cited from earlier work
T2 sequence (Q9UQB9 1-309): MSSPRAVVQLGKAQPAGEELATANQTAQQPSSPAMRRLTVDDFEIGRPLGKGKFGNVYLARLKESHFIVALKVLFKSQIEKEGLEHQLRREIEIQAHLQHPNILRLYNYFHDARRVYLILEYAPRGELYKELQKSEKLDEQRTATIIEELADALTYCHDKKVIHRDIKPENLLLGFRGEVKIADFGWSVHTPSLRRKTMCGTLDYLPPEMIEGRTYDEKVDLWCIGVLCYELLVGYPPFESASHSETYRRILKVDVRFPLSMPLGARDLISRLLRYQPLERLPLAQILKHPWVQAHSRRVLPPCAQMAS

FLT3 kinases = target: T3, FLT3 kinases (Homo sapiens, UniProt P36888); details: cited from earlier work
T3 sequence (P36888 27-993): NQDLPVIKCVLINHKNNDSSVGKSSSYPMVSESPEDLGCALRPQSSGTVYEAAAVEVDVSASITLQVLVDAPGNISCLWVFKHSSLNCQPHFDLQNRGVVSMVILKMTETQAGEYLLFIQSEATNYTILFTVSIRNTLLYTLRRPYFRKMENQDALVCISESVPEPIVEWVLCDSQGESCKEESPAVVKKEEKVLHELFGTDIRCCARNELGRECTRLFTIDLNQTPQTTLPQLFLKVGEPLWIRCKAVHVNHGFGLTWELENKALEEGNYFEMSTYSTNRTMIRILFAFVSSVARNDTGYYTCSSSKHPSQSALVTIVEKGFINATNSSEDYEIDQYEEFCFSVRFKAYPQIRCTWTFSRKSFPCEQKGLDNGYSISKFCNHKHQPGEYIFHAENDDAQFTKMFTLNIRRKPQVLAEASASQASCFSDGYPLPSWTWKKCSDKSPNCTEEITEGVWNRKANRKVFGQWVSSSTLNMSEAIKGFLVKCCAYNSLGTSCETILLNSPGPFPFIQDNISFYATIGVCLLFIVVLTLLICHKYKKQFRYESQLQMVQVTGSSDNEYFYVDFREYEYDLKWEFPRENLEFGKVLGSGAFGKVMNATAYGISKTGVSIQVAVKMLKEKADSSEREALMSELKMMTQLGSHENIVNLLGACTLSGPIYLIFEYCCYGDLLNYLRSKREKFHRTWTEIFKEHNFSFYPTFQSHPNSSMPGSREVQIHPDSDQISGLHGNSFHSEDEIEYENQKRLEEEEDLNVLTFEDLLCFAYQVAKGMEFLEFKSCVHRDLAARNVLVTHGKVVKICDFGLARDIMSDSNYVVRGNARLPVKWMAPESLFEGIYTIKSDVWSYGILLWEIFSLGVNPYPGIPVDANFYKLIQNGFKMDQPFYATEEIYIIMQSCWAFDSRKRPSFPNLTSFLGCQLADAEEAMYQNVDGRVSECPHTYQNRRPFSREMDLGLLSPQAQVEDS

Compound: Cc1nn(C)cc1-c1nc2c(N3CCN(Cc4ccc(Cl)cc4)CC3)c(Cl)cnc2[nH]1.O=C(O)/C=C/C(=O)O [compound of Formula (1) fumarate, 6-chloro-7-(4-(4-chlorobenzyl)piperazin-1-yl)-2-(1,3-dimethyl-1H-pyrazol-4-yl)-3H-imidazo[4,5-b]pyridine fumarate]
- stability compared with other pharmaceutically acceptable salts [1]: greater stability
- solubility at 40 min ([2]; Capryol 90 (non-ionic surfactant), oil or lipid, in Capryol 90 (fatty acid ester)): < 4600 µg/mL
- solubility at 40 min ([2]; Capryol PC MG (non-ionic surfactant), oil or lipid, in Capryol PC MG (fatty acid ester)): < 3600 µg/mL
- solubility at 40 min ([2]; Cremophor EL (non-ionic surfactant), organic solvent or mixture, in Cremophor EL (glycerol derivative)): < 4900 µg/mL
- solubility at 40 min ([2]; Cremophor RH40 (non-ionic surfactant), organic solvent or mixture, in Cremophor RH40 (glycerol derivative)): < 4400 µg/mL
- solubility at 40 min ([2]; Gelucire 44/14 (non-ionic surfactant), organic solvent or mixture, in Gelucire 44/14 (fatty acid ester/glycerol derivative)): < 3500 µg/mL
- solubility at 40 min ([2]; Gelucire 50/13 (non-ionic surfactant), organic solvent or mixture, in Gelucire 50/13 (fatty acid ester/glycerol derivative)): < 2700 µg/mL
- solubility at 40 min ([2]; Kollisolv P124 (non-ionic surfactant), organic solvent or mixture, in Kollisolv P124 (co-polymer)): < 4500 µg/mL
- solubility at 40 min ([2]; Labrafac PC (non-ionic surfactant), oil or lipid, in Labrafac PC (fatty acid ester)): < 2100 µg/mL
- solubility at 40 min ([2]; Labrafil 1944 (non-ionic surfactant), oil or lipid, in Labrafil 1944 (glycerol derivative)): < 5000 µg/mL
- solubility at 40 min ([2]; Labrafil 2125 (non-ionic surfactant), oil or lipid, in Labrafil 2125 (glycerol derivative)): < 5500 µg/mL
- solubility at 40 min ([2]; Labrasol ALF (non-ionic surfactant), organic solvent or mixture, in Labrasol ALF (glycerol derivative)): < 3500 µg/mL
- solubility at 40 min ([2]; Miglyol 812N (non-ionic surfactant), oil or lipid, in Miglyol 812N (glycerol derivative)): < 3200 µg/mL
- solubility at 40 min ([2]; Softisan 378 (non-ionic surfactant), oil or lipid, in Softisan 378 (glycerol derivative)): < 4300 µg/mL
- solubility at 40 min ([2]; Tween 80 (non-ionic surfactant), organic solvent or mixture, in Tween 80 (sorbitan derivative), ~3 mg monofumarate, up to 1 ml, vortexed, sonicated, 45° C. 40 min): < 3700 µg/mL
- solubility at 40 min ([2]; Vitamin E TPGS (non-ionic surfactant), organic solvent or mixture, in Vitamin E TPGS (vitamin E derivative)): < 3200 µg/mL
- aqueous solubility compared with free base [3]: higher aqueous solubility than the free base

Compound: Cc1nn(C)cc1-c1nc2c(N3CCN(Cc4ccc(Cl)cc4)CC3)c(Cl)cnc2[nH]1 [compound of Formula (1), 6-chloro-7-(4-(4-chlorobenzyl)piperazin-1-yl)-2-(1,3-dimethyl-1H-pyrazol-4-yl)-3H-imidazo[4,5-b]pyridine]
- interaction with cytochrome P450 activity (cytochrome P450): minimal interaction
- interaction with hERG (hERG): minimal interaction
- activity against Aurora A (Aurora A): high activity
- activity against Aurora B (Aurora B): high activity
- time the suspension remained stable ([4]; 20% w/v aqueous Gelucire 44/14, 1.5 mg/mL): at least 10 days
- time the suspension remained stable ([4]; 20% w/v aqueous Poloxamer P124, 1.5 mg/mL): at least 10 days
- solubility ([4]; 20% w/v aqueous TPGS solution, 20% w/v aqueous TPGS, 100 μL DMSO solution added to 900 μL excipient solution, read-out: concentration solubilised (clear solution) in the aqueous vehicle): 1500 µg/mL
- time the solution remained clear ([4]; 20% w/v aqueous TPGS, 1.5 mg/mL): up to 5 hours
- solubility ([4]; 20% w/v aqueous Cremophor EL, Cremophor RH 40, Labrasol ALF, Solutol HS15, Poloxamer P124, TPGS, Gelucire 44/14, read-out: concentration solubilised by any tested excipient): ≤ 1500 µg/mL
- activity against Aurora C (Aurora C): high activity
- activity against FLT3 kinases (FLT3 kinases): high activity
